Test results published in ChEMBL document CHEMBL2384969, “Discovery and Optimization of Potent GPR40 Full Agonists Containing Tricyclic Spirocycles” (ACS Med Chem Lett, 2013).
Values belong to the compound of their own block, whether it stands above or below them. The source made the active and inactive calls. The rule behind the calls is not given here.

Experiments:
[1] = molecular target: T1, Adenosine receptor A1 (Homo sapiens) (UniProt P30542); test: Inhibition of human adenosine A1 receptor at 10 uM relative to control
T1 sequence (whole entry): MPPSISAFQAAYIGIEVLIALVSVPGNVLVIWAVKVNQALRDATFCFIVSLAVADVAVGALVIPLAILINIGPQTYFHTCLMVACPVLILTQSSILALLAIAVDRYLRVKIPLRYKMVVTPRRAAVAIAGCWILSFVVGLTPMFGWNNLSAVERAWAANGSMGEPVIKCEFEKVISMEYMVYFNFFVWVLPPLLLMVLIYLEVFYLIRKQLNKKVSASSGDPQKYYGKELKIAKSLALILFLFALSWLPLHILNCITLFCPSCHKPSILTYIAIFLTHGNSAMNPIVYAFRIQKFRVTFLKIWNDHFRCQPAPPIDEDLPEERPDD

[2] = molecular target: Histamine H4 receptor (Homo sapiens) (UniProt Q9H3N8); test: Inhibition of human histamine H4 receptor at 10 uM relative to control
[3] = Volume of distribution at steady state in Sprague-Dawley rat at 0.5 mg/kg, iv; type: ADME, organism-based; parameters: dose 0.5 mg/kg, route intravenous; settings: in vivo, read-out: Vdss
[4] = Volume of distribution at steady state in cynomolgus monkey at 0.5 mg/kg, iv; type: ADME, organism-based, Macaca fascicularis; parameters: dose 0.5 mg/kg, route intravenous; settings: in vivo, read-out: Vdss
Mus musculus [5] = test: Antidiabetic activity in high-fat diet fed streptozotocin-induced C57BL/6J mouse at 60 mg/kg, po by oral glucose tolerance test; type: functional, organism-based; parameters: dose 60 mg/kg
[6] = molecular target: Sodium-dependent noradrenaline transporter (Homo sapiens) (UniProt P23975); test: Inhibition of human norepinephrine transporter at 10 uM relative to control
Sequence of Sodium-dependent noradrenaline transporter (Homo sapiens) (P23975 whole entry): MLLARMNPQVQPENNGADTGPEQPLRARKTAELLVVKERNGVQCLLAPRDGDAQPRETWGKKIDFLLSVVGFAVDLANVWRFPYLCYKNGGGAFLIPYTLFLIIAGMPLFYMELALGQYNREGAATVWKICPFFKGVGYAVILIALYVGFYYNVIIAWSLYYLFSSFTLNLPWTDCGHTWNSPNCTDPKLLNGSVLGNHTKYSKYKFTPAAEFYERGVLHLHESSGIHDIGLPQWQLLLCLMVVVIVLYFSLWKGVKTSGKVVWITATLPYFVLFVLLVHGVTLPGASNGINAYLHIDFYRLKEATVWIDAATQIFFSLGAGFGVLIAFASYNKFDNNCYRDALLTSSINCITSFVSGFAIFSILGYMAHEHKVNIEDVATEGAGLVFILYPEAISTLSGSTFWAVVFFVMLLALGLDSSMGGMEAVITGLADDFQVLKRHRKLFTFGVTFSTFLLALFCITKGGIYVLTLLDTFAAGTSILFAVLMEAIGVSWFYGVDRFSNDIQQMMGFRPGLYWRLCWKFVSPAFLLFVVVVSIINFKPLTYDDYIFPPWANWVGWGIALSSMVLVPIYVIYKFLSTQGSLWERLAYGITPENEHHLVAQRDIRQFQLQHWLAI

[7] = molecular target: T2, Gastrin/cholecystokinin type B receptor (Homo sapiens) (UniProt P32239); test: Inhibition of human CCK2 receptor at 10 uM relative to control
T2 sequence (whole entry): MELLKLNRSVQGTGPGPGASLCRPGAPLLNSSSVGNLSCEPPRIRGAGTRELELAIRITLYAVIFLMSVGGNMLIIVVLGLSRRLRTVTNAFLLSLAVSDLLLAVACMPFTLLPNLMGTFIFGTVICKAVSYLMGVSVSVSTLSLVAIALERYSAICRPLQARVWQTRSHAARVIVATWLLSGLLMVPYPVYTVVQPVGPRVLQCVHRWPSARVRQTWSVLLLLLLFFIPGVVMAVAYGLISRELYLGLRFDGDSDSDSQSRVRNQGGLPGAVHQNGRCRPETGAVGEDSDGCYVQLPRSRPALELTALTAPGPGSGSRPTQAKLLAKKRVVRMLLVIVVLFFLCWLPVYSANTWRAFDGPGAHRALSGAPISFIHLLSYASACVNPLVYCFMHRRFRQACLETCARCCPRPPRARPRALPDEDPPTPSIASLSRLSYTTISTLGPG

[8] = Oral bioavailability in Sprague-Dawley rat at 2 mg/kg; type: ADME, organism-based; settings: in vivo
[9] = molecular target: D(1A) dopamine receptor (Homo sapiens) (UniProt P21728); test: Inhibition of human dopamine D1 receptor at 10 uM relative to control
Sequence of D(1A) dopamine receptor (Homo sapiens) (P21728 whole entry): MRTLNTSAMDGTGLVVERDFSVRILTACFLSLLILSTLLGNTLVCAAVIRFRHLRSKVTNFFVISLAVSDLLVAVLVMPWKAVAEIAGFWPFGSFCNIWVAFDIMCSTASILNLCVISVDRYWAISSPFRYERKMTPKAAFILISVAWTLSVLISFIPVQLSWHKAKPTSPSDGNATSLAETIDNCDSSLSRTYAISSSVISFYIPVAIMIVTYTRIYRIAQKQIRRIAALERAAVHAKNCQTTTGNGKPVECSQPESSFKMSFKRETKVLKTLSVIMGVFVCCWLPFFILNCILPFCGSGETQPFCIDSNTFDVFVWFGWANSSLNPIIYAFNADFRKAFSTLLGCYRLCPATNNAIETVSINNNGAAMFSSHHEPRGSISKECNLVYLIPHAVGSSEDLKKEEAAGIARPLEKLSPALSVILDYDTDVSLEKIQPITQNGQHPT

[10] = molecular target: Kappa-type opioid receptor (Rattus norvegicus) (UniProt P34975); test: Inhibition of rat kappa opioid receptor at 10 uM relative to control
Sequence of Kappa-type opioid receptor (Rattus norvegicus) (P34975 whole entry): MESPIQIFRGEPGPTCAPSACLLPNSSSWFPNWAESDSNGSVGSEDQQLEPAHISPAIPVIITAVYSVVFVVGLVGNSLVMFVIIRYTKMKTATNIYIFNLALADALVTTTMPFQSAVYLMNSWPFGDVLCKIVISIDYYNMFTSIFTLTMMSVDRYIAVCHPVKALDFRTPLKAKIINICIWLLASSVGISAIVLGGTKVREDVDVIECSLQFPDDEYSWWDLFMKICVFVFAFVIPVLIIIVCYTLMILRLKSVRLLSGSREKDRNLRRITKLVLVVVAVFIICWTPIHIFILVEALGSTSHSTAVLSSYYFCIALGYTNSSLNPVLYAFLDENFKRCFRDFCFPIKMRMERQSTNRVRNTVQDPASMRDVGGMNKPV

[11] = molecular target: T3, Thyrotropin-releasing hormone receptor (Homo sapiens) (UniProt P34981); test: Inhibition of human TRH1 receptor at 10 uM relative to control
T3 sequence (whole entry): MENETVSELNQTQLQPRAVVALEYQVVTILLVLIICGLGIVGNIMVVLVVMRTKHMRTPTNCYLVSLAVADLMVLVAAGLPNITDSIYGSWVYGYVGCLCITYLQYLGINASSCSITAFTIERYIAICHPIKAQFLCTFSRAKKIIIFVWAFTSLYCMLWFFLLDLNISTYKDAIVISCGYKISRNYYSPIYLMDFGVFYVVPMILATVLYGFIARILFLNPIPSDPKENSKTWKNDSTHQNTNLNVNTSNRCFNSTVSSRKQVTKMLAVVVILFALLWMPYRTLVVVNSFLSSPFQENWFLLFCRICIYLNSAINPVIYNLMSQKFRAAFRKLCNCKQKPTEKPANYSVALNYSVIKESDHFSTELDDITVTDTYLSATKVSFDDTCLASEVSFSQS

[12] = molecular target: T4, Free fatty acid receptor 1 (Homo sapiens, UniProt O14842); test: Agonist activity at human FFA1 receptor expressed in CHO cell membranes after 4 hrs by aequorin bioluminescence assay; type: cell-based
T4 sequence (O14842 whole entry): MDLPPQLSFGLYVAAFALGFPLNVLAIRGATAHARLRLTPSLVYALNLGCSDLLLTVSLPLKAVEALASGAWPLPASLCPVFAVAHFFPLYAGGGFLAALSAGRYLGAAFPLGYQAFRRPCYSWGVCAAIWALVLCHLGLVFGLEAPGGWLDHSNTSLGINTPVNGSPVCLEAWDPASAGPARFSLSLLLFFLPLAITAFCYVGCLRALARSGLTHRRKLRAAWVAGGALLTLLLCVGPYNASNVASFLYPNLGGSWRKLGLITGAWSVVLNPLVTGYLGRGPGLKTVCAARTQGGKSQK

[13] = molecular target: T4, Free fatty acid receptor 1; test: Agonist activity at human FFA1 receptor expressed in CHO cell membranes after 4 hrs by aequorin bioluminescence assay relative to AM-1638; type: cell-based
[14] = Clearance in cynomolgus monkey at 0.5 mg/kg, iv; type: ADME, organism-based, Macaca fascicularis; parameters: dose 0.5 mg/kg, route intravenous; settings: in vivo
[15] = Half life in cynomolgus monkey at 0.5 mg/kg, iv; type: ADME, organism-based, Macaca fascicularis; parameters: dose 0.5 mg/kg, route intravenous; settings: in vivo
[16] = molecular target: T4, Free fatty acid receptor 1; test: Positive cooperativite binding to human FFA1 receptor expressed in CHO cell membranes assessed as enhancement of specific binding of [3H]AMG 837 by reciprocal competition assay
[17] = molecular target: Free fatty acid receptor 1 (Rattus norvegicus) (UniProt Q8K3T4); test: Agonist activity at FFA1 receptor in Sprague-Dawley rat fetal intestinal cells assessed as stimulation of GLP1 secretion after 1 hr by ELISA
Sequence of Free fatty acid receptor 1 (Rattus norvegicus) (Q8K3T4 whole entry): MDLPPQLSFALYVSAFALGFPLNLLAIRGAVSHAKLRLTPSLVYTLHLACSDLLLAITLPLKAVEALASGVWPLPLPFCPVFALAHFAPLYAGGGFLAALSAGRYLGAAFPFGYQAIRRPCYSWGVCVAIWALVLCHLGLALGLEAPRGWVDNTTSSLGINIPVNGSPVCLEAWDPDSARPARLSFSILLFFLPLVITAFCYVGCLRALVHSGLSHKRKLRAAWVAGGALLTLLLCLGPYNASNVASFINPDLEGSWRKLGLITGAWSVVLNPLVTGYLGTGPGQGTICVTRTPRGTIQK

[18] = Half life in Sprague-Dawley rat at 0.5 mg/kg, iv; type: ADME, organism-based; parameters: dose 0.5 mg/kg, route intravenous; settings: in vivo
[19] = molecular target: Free fatty acid receptor 1 (Rattus norvegicus) (UniProt Q8K3T4); test: Agonist activity at FFA1 receptor in Sprague-Dawley rat fetal intestinal cells assessed as stimulation of GIP secretion after 1 hr by ELISA
[20] = Oral bioavailability in cynomolgus monkey at 2 mg/kg; type: ADME, organism-based, Macaca fascicularis; settings: in vivo
Pancreatic islet [21] = test: Potentiation of glucose-stimulated insulin secretion in human pancreatic islets at 0.01 uM to 10 uM; type: functional
[22] = molecular target: Free fatty acid receptor 1 (Rattus norvegicus) (UniProt Q8K3T4); test: Agonist activity at FFA1 receptor in Sprague-Dawley rat fetal intestinal cells assessed as stimulation of GIP secretion after 1 hr by ELISA relative to AM-1638
Pancreatic islet [23] = test: Potentiation of glucose-stimulated insulin secretion in mouse pancreatic islets at 0.01 uM to 10 uM; type: functional
[24] = Clearance in Sprague-Dawley rat at 0.5 mg/kg, iv; type: ADME, organism-based; parameters: dose 0.5 mg/kg, route intravenous; settings: in vivo
[25] = molecular target: Free fatty acid receptor 1 (Rattus norvegicus) (UniProt Q8K3T4); test: Agonist activity at FFA1 receptor in Sprague-Dawley rat fetal intestinal cells assessed as stimulation of GLP1 secretion after 1 hr by ELISA relative to AM-1638
Mus musculus [26] = test: Antidiabetic activity in high-fat diet fed streptozotocin-induced C57BL/6J mouse assessed as increase in insulin secretion at 30 mg/kg, po by oral glucose tolerance test; type: functional, organism-based; parameters: dose 30 mg/kg
Mus musculus [27] = test: Antidiabetic activity in high-fat diet fed streptozotocin-induced C57BL/6J mouse assessed as improvement in glucose AUC at 30 mg/kg, po by oral glucose tolerance test relative to control; type: functional

SMILES: COc1ccc(F)c(-c2ccc(COc3cccc([C@@H](CC(=O)O)C4CC4)c3)cc2C2=CCCC2(C)C)c1
inhibition [1]: > 70%
inhibition [2]: > 70%
Vd [3]: 1.1 L/kg
Vd [4]: 2 L/kg
Activity (Mus musculus [5]): Active
inhibition [6]: > 70%
inhibition [7]: > 70%
bioavailability [8]: 15%
inhibition [9]: > 70%
inhibition [10]: > 70%
inhibition [11]: > 70%

SMILES: COc1ccc(F)c(-c2ccc(COc3ccc4c(c3)[C@@]3(CC4)C[C@H]3C(=O)O)cc2C2=CCCC2(C)C)c1
EC50 [12]: 3780 nM
Emax [13]: 27%

SMILES: COc1ccc(F)c(-c2ccc(COc3ccc4c(c3)[C@]3(CC4)CC[C@H]3C(=O)O)cc2C2=CCCC2(C)C)c1
EC50 [12]: 520 nM
Emax [13]: 92%

SMILES: COc1ccc(F)c(-c2ccc(COc3ccc4c(c3)[C@H]3[C@@H](C4)[C@H]3C(=O)O)cc2C2=CCCC2(C)C)c1
EC50 [12]: > 30000 nM
Emax [13]: 17%

SMILES: COc1ccc(F)c(-c2ccc(COc3ccc4c(c3)[C@]3(CC4)C[C@@H]3C(=O)O)cc2C2=CCCC2(C)C)c1
EC50 [12]: > 30000 nM
Emax [13]: 5%

SMILES: COc1ccc(F)c(-c2ccc(COc3ccc4c(c3)[C@@H]3[C@H](C4)[C@@H]3C(=O)O)cc2C2=CCCC2(C)C)c1
EC50 [12]: > 30000 nM
Emax [13]: 10%

SMILES: COc1ccc(F)c(-c2ccc(COc3ccc4c(c3)[C@@H]3[C@H](C4)[C@H]3C(=O)O)cc2C2=CCCC2(C)C)c1
EC50 [12]: > 30000 nM
Emax [13]: 15%

SMILES: COc1ccc(F)c(-c2ccc(COc3ccc4c(c3)[C@@]3(CC4)C[C@@H]3C(=O)O)cc2C2=CCCC2(C)C)c1
EC50 [12]: > 30000 nM
Emax [13]: 12%

SMILES: COc1ccc(F)c(-c2ccc(COc3ccc4c(c3)[C@]3(CCC4)CC[C@H]3C(=O)O)cc2C2=CCCC2(C)C)c1
EC50 [12]: 350 nM
Emax [13]: 83%

SMILES: COc1ccc(F)c(-c2ccc(COc3ccc4c(c3)[C@H]3[C@@H](C4)[C@@H]3C(=O)O)cc2C2=CCCC2(C)C)c1
EC50 [12]: 1420 nM
Emax [13]: 99%

Further compounds by falling EC50 [12], results first:

EC50 [12]: 212 nM
Emax [13]: 104%
SMILES: COc1ccc(F)c(-c2ccc(COc3ccc4c(c3)[C@]3(CC4)C[C@H]3C(=O)O)cc2[C@H]2CCCC2(C)C)c1

EC50 [12]: 180 nM
Emax [13]: 100%
SMILES: COc1ccc(F)c(-c2ccc(COc3ccc4c(c3)[C@]3(CC4)C[C@H]3C(=O)O)cc2C2=CCCC2(C)C)c1

EC50 [12]: 150 nM
Emax [13]: 98%
SMILES: COc1ccc(F)c(-c2ccc(COc3ccc4c(c3)[C@]3(CCC4)C[C@H]3C(=O)O)cc2C2=CCCC2(C)C)c1

clearance [14]: 1.83 mL/min/kg
inhibition [1]: < 70%
half-life [15]: 3.7 h
EC50 [12]: 105 nM
inhibition [2]: < 70%
half-life [18]: 4.1 h
Vd [3]: 0.8 L/kg
Vd [4]: 0.4 L/kg
Emax [13]: 90%
bioavailability [20]: 44%
inhibition [6]: < 70%
inhibition [7]: < 70%
clearance [24]: 2.83 mL/min/kg
bioavailability [8]: 61%
inhibition [9]: < 70%
inhibition [10]: < 70%
inhibition [11]: < 70%
SMILES: COc1cc(-c2ccc(COc3ccc4c(c3F)[C@]3(CCC4)C[C@H]3C(=O)O)cc2[C@@H]2CCCC2(C)C)c(F)cn1

EC50 [12]: 98 nM
Emax [13]: 90%
SMILES: COc1ccc(F)c(-c2ccc(COc3ccc4c(c3F)[C@]3(CCC4)C[C@H]3C(=O)O)cc2[C@@H]2CCCC2(C)C)c1

EC50 [12]: 92 nM
Emax [13]: 101%
SMILES: COc1ccc(F)c(-c2ccc(COc3ccc4c(c3)[C@]3(CCC4)C[C@H]3C(=O)O)cc2[C@@H]2CCCC2(C)C)c1

clearance [14]: 14 mL/min/kg
inhibition [1]: < 70%
half-life [15]: 2.2 h
Activity [16]: Active
Activity [17]: Active
EC50 [12]: 81 nM
inhibition [2]: < 70%
half-life [18]: 4.2 h
Vd [3]: 0.7 L/kg
Vd [4]: 1.4 L/kg
Emax [13]: 101%
Activity [19]: Active
bioavailability [20]: 69%
fold change (FC) [22]: 2
inhibition [6]: < 70%
inhibition [7]: < 70%
clearance [24]: 4.17 mL/min/kg
fold change (FC) [25]: 2
bioavailability [8]: 28%
inhibition [9]: < 70%
inhibition [10]: < 70%
inhibition [11]: < 70%
SMILES: COc1ccc(F)c(-c2ccc(COc3ccc4c(c3)[C@]3(CC4)C[C@H]3C(=O)O)cc2[C@@H]2CCCC2(C)C)c1
Activity (Pancreatic islet [21]): Active
Activity (Pancreatic islet [23]): Active
Activity (Mus musculus [26]): Active
Activity (Mus musculus [27]): 48%
